PMC9738062, “Selectively Halogenated Flavonolignans—Preparation and Antibacterial Activity” (International Journal of Molecular Sciences, 2022)

Experiments:
[1] = tested on: Vibrio campbellii BAA 1118 (AI-1); experiment: Viability of the quorum-sensing reporter culture (resazurin assay), AI-1 strain; format: cell-based; conditions: BAA1118, V. campbellii BAA 1118, resazurin assay, read-out: IC50 (concentration that halved the viability)
Excerpt: (§1) Commercially available strains of Vibrio campbellii were used to evaluate the ability of flavonoids and their derivatives to inhibit bacterial quorum sensing. V. campbellii uses two types of autoinducing molecules for its communication—N-acyl-homoserine lactones (Autoinducer I, AI-1, strain BAA 1118) and furanosyl borate diester (Autoinducer II, AI-2, strain BAA 1119). AI-1-based communication is mainly used by Gram-negative bacteria, while AI-2-based communication is found in both Gram-negative and Gram-positive bacteria. The mutant strains of V. campbellii BA1118 and BA1119 respond only to AI-1 or AI-2, respectively, and the response to the respective AI concentration is measured as luminescence. The higher the AI concentration, the higher the luminescence signal. The ability to inhibit the communication was expressed as the selectivity index (SI), calculated as the ratio between the concentration that halved the viability (IC50) and the concentration that halved the communication (EC50) of the respective V. campbellii strains. […] The antimicrobial activity of quorum-sensing inhibitors is undesirable because it creates a selection pressure and can lead to the development of resistance.
(§2) The inhibition of bacterial extracellular communication was measured using Vibrio campbellii strains BAA-1118 and BAA-1119. The experiment was performed according to the methods of Szemerédi et al.. Briefly, 5 × 10^5 CFU/mL (colony-forming units per milliliter) were seeded in an Autoinducer Bioassay medium (NaCl 17.5 g/L, MgSO4 12.3 g/L, Casamino acids 2 g/L, 10 mL of 1 M potassium phosphate pH 7.0, 10 mL of 0.1 M L-arginine, and 10 mL of glycerol in 970 mL of deionized water) in a 96-well plate. Immediately, the tested compounds were added at the final concentration of 0.2–200 µM and luminescence was recorded for 16 h by a SpectraMax i3x microplate reader set at 30 °C, an integration time of 10,000 ms, and shaking for 60 s before measurement. […] The selectivity index was calculated as the […]. The EC50 and IC50 were calculated using GraphPad Prism software version 5.00 for Windows with a nonlinear regression curve fit.

[2] = tested on: Vibrio campbellii BAA 1119 (AI-2); experiment: microbe, parasite or virus in culture; format: cell-based; conditions: for EC50: Vibrio campbellii, BAA1119, 16 h, read-out: EC50 (concentration that halved the communication); for SI (selectivity index): ratio IC50 (viability) / EC50 (communication), BAA 1119
Excerpt: as §1, §2

[3] = tested on: Vibrio campbellii BAA 1118 (AI-1); experiment: microbe, parasite or virus in culture; format: cell-based; conditions: for EC50: Vibrio campbellii, BAA1118, 16 h, read-out: EC50 (concentration that halved the communication); for SI (selectivity index): ratio IC50 (viability) / EC50 (communication), BAA 1118
Excerpt: as §1, §2

[4] = tested on: Vibrio campbellii BAA 1119 (AI-2); experiment: Viability of the quorum-sensing reporter culture (resazurin assay), AI-2 strain; format: cell-based; conditions: BAA1119, V. campbellii BAA 1119, resazurin assay, read-out: IC50 (concentration that halved the viability)
Excerpt: as §1, §2

[5] = Ferric reducing antioxidant power (FRAP); conditions: Fe2+ equivalents
Method: (§3) To further elucidate how halogenation affects other properties of the flavonoids studied, their 2,2′-azino-bis-(3-ethylbenzothiazoline-6-sulfonic acid) cation (ABTS) and 1,1-diphenyl-2-picrylhydrazyl (DPPH) radical scavenging, the Folin–Ciocalteu reagent (FCR) reducing, the ferric-reducing antioxidant power (FRAP), and the anti-lipoperoxidation activities were evaluated by in vitro methods (Supplementary Information Tables S1 and S2).
(§4) The antiradical activity was evaluated by the ability to scavenge ABTS and DPPH radicals. Reducing capacity was assessed by the ability to reduce the Folin–Ciocalteu reagent (FCR) and ferric ions (FRAP). The ability to inhibit lipid peroxidation of pooled male rat microsomal liver membranes induced by tert-butyl hydroperoxide was also evaluated and the results were expressed as IC50 values.

[6] = tested on: lipopolysaccharide-stimulated macrophages (RAW 264.7); experiment: Inhibition of nitric oxide production (Griess reagent); format: cell-based, murine; conditions: Mus musculus, RAW264.7; LPS 100 ng/mL, 24 h; highest tested concentration 100 µM; read-out: NO Production IC50
Method: The anti-inflammatory activity of the tested flavonolignans was determined as the ability to reduce nitric oxide production by murine macrophages (RAW 264.7) stimulated by bacterial lipopolysaccharides, as previously described. […] For the experiment, 1 × 10^6 cells/mL was seeded into the 96-well plate (100 µL/well). […] After 24 h, the medium was mixed with Griess reagent (0.04 g/mL), prepared freshly in deionized water at the ratio of 1:1. The absorbance was measured after 15 min at 540 nm by the SpectraMax i3x microplate reader. Cell viability was determined by resazurin assay.

[7] = tested on: human dermal fibroblasts (HDF); experiment: Cytotoxicity (resazurin assay, 72 h); format: cell-based; conditions: Fibroblast
Method: (§5) The cytotoxicity of flavonoids and their halogenated derivatives was determined as their ability to decrease the viability of human dermal fibroblasts (HDF) and doxorubicin-resistant human ovarian carcinomas (HOC/DOX). Both cell lines were cultivated in Dulbecco’s Modified Eagle’s Medium supplemented with fetal bovine serum (FBS, 10% v/v) and 1 × antibiotic antimycotic solution and incubated at 37 °C in the atmosphere of 5% CO2. The experiment was performed according to a previously published method. Briefly, 1 × 10^5 cells/mL were seeded into a 96-well plate (100 µL/well). After 24 h, flavonoids and their derivatives were administered at the concentration range of 31.25–500 µM. After 72 h, the viability was determined by resazurin assay (0.03 mg/mL of resazurin in PBS), where the fluorescence was measured after 2 h of incubation by the SpectraMax i3x microplate reader at a wavelength of 560/590 nm (excitation/emission). The concentration inhibiting half of the population (IC50) was determined using nonlinear regression in GraphPad Prism software. The selectivity index was calculated as the ratio between the IC50 for HDF (control, non-cancerous cells) and the IC50 for HOC/DOX (cancer cells).

[8] = tested on: doxorubicin-resistant human ovarian carcinoma (HOC/DOX); experiment: Cytotoxicity (resazurin assay, 72 h); format: cell-based; conditions: for IC50: Homo sapiens, 72 h, resazurin assay; for SI (selectivity index): ratio IC50 for HDF / IC50 for HOC/DOX
Method: as §5

[9] = tested on: multidrug-resistant P. aeruginosa; experiment: Sensitization of antibiotic-resistant bacteria (compound plus breakpoint antibiotic concentration); format: cell-based, Pseudomonas aeruginosa; conditions: flavonoid 40 µM, 24 h; for Effect on viability in combination with colistin: colistin 2 mg/L; for Effect on viability in combination with imipenem: imipenem 4 mg/L; for Effect on viability in combination with imipenem: key: -: no effect (100% viability) was observed up to the highest flavonolignan concentration tested (>40 µM); reversion of resistance: the compound reversed the resistant phenotype to a sensitive one
Method: (§6) Clinically relevant antibiotics were selected for sensitization testing according to the European Committee on Antimicrobial Susceptibility Testing (EUCAST). Neither colistin and imipenem at breakpoint concentrations (according to EUCAST, […] and […]) affected the growth of the multidrug-resistant clinical strain of P. aeruginosa. Similarly, neither chloramphenicol and gentamicin at breakpoint concentrations ([…], respectively) affected the multidrug-resistant clinical strain of S. aureus. Flavonoids and their derivatives (1–40 µM) were used in combination therapy, along with the breakpoint concentration of antibiotics. After co-incubation, the minimum inhibitory concentration of flavonoids inhibiting the visible growth of bacteria was determined (Table 2).
(§7) Clinical isolates of P. aeruginosa and S. aureus were obtained from the General University Hospital in Prague (Prague, Czech Republic). P. aeruginosa was resistant to ciprofloxacin, oxacillin, ticarcillin, colistin, gentamicin, and imipenem. S. aureus was resistant to ciprofloxacin, gentamicin, erythromycin, chloramphenicol, clindamycin, oxacillin, cefotaxime, and vancomycin. Bacteria were cultivated in Mueller–Hinton broth (MH broth, Merck). The susceptibility of the bacteria was evaluated by the minimum inhibitory concentrations (MIC). The MIC of derivatives in the presence of the antibiotic cut-off concentration was determined according to ISO 20776-1: 2020. The antibiotic cut-off concentration was chosen according to the European Committee on Antimicrobial Susceptibility Testing (EUCAST, Clinical breakpoints—bacteria (ver. 11.0), 1 January 2021). The 40 µM concentration of the derivatives was chosen as the highest concentration for the tests. Cell viability was determined by measuring absorbance (A590 nm) after 24 h incubation at 37 °C, 150 rpm.

[10] = tested on: multidrug-resistant S. aureus; experiment: as above; format: cell-based, Staphylococcus aureus; conditions: flavonoid 40 µM, 24 h; for Effect on viability in combination with chloramphenicol: chloramphenicol 8 mg/L
Method: as §6, §7

[11] = tested on: pooled male rat microsomal liver membranes; experiment: Inhibition of lipid peroxidation induced by tert-butyl hydroperoxide; format: biochemical; conditions: male rat microsomes, read-out: ILP IC50
Method: as §4

[12] = DPPH radical scavenging; conditions: 1,1-diphenyl-2-picrylhydrazyl radical scavenging
Method: as §3, §4

[13] = Folin-Ciocalteu reagent reduction; conditions: gallic acid equivalents
Method: as §3, §4

[14] = ABTS cation radical scavenging; conditions: vitamin C equivalent antioxidant capacity
Method: as §3, §4

In the case of `O=c1[nH]cc(F)c(=O)[nH]1` [5-Fluorouracil, reference compound], the IC50 [1] is reported as 0.00068 µM, the EC50 [2] is reported as 0.00044 µM and the “SI (selectivity index)” value [2] is reported as 7.8 ± 0.5. The EC50 [3] was 0.00039 µM, the “SI (selectivity index)” value [3] was 1.73 ± 0.05 and the IC50 [4] was 0.00341 µM.

In the case of `[Fe+2]` [Fe2+, reference compound], the “FRAP [Fe2+eq]” value [5] is reported as 1.01 Fe2+eq.

Molecule `COc1ccc2c(c1)c(CC(=O)O)c(C)n2C(=O)c1ccc(Cl)cc1` [Indomethacin, reference compound] has an IC50 [6] of 51.3 ± 0.6 µM, an IC50 [7] of 222 µM and an IC50 [8] of 17.1 ± 0.6 µM. The “SI (selectivity index)” value [8] was 12.94.

In the case of `CC1(C)[C@H](C(=O)O)N2C(=O)C[C@H]2S1(=O)=O` [Sulbactam, reference compound], the “Effect on viability in combination with colistin” value [9] is reported as “-”, the “Effect on viability in combination with imipenem” value [9] is reported as “-” and the “Effect on viability in combination with chloramphenicol” value [10] is reported as “reversion of resistance”. For the same molecule, the “Effect on viability in combination with gentamicin” value ([10]; gentamicin 1 mg/L) was “-”.

In the case of `Cc1c(C)c2c(c(C)c1O)CCC(C)(C(=O)O)O2` (stereo not shown) [Trolox, reference compound], the IC50 [11] is reported as 32.7 ± 2.4 µM and the IC50 [12] is reported as 3.5 µM.

In the case of `COc1cc([C@H]2Oc3cc([C@H]4Oc5c(Br)c(O)cc(O)c5C(=O)[C@@H]4O)ccc3O[C@@H]2CO)ccc1O` [compound 19, 8-bromosilybin A], the “FRAP [Fe2+eq]” value [5] is reported as 0.057 ± 0.002 Fe2+eq, the “Effect on viability in combination with colistin” value [9] is reported as “-” and the “Effect on viability in combination with imipenem” value [9] is reported as “-”. The IC50 [1] was 115 ± 5.4 µM, the IC50 [12] was over 500 µM and the “FCR [GAE]” value [13] was 1.01 ± 0.02 GAE. The EC50 [2] was 4.6 ± 0.3 µM, the “SI (selectivity index)” value [2] was at least 43.1 ± 2.6 and the EC50 [3] was 33.9 ± 1.8 µM. For the same molecule, the “SI (selectivity index)” value [3] was 3.4 ± 0.3, the IC50 [6] was 36.4 ± 1.7 µM and the “Effect on viability in combination with chloramphenicol” value [10] was “-”. The IC50 [7] was 77.4 ± 1.1 µM, the IC50 [8] was 202 µM and the “SI (selectivity index)” value [8] was 0.38. For the same molecule, the “ABTS [CEAC]” value [14] was 0.68 ± 0.03 CEAC and the IC50 [4] was over 200 µM.
